Source: patent publication US11602532B2, “Nanoparticle formulations of decoquinate in the form of solid solution” (CAS Lamvac (Guangzhou) Biomedical Technology Co., Ltd., priority 2019, dated 2023)
Like-named read-outs stand apart in the source and are kept apart here.

Tests used:
pfB64G11 (PS) = assay: Malaria SYBR fluorescence (MSF) blood stage assay, pfB64G11; format: cell-based; details: Plasmodium falciparum, read-out: IC50 (nM) Mean
Protocol: (§1) Fifteen different preparations of decoquinate solid solutions as described in Examples were tested in cell culture assays to assess the growth inhibition of blood stage Plasmodium in freshly isolated human blood cells and the growth inhibition of Plasmodium in the liver stage in cell culture of HepG2 cells. The malaria SYBR fluorescence (MSF) assay was performed to detect the parasite DNA of Plasmodium falciparum in late-ring or early-trophozoite stages. […] The intensity of fluorescence generated by the binding of SYBR Green I dye to Plasmodium DNA is quantitatively proportional to the number of parasites. The detailed description of method refers to SOP of the inventors.
(§2) Chloroquine and artemisinin were used as positive controls in the same experiments.

pfDd2 = assay: Malaria SYBR fluorescence (MSF) blood stage assay, pfDd2; format: cell-based; details: Plasmodium falciparum, read-out: IC50 (nM) Mean
Protocol: as §1, §2

Pf803 = assay: Malaria SYBR fluorescence (MSF) blood stage assay, Pf803; format: cell-based; details: Plasmodium falciparum, read-out: IC50 (nM) Mean
Protocol: as §1, §2
(§3) The HME solid solutions were treated with alkaline buffer (pH 9), or with high temperature (60° C.) or with high humidity (92%) for 5 or 10 days respectively and then used for testing decoquinate inhibitory effects in in vitro blood stage experiments using freshly prepared red blood cells infected with Plasmodium Pf803 or PfB12D9. The base pH was neutralized by dialysis of decoquinate HME samples before used in cell culture experiments.

pfB47D6 (PS) = assay: Malaria SYBR fluorescence (MSF) blood stage assay, pfB47D6; format: cell-based; details: Plasmodium falciparum, read-out: IC50 (nM) Mean
Protocol: as §1, §2

pfB74F6 (PS) = assay: Malaria SYBR fluorescence (MSF) blood stage assay, pfB74F6; format: cell-based; details: Plasmodium falciparum, read-out: IC50 (nM) Mean
Protocol: as §1, §2

Pf3D7 = assay: Malaria SYBR fluorescence (MSF) blood stage assay, Pf3D7; format: cell-based; details: Plasmodium falciparum, read-out: IC50 (nM) Mean
Protocol: as §1, §2

pfB74C4 (PS) = assay: Malaria SYBR fluorescence (MSF) blood stage assay, pfB74C4; format: cell-based; details: Plasmodium falciparum, read-out: IC50 (nM) Mean
Protocol: as §1, §2

pfB12D9 (PS) = assay: Malaria SYBR fluorescence (MSF) blood stage assay, pfB12D9; format: cell-based; details: Plasmodium falciparum, read-out: IC50 (nM) Mean
Protocol: as §1
Table 6 is the results showing in vitro antimalarial potency of decoquinate HME formulations prepared from Example 8 (F8) and Example 15 (F15). […] Chloroquine and artemisinin were used as positive controls in the same experiments.
as §3

[1] = HPLC analysis of decoquinate after HME, acid or alkaline treatment; format: physicochemical; details: treated with pH 1.2 solution for 2 days
Protocol: Samples are dialyzed against distilled water, diluted and analyzed with the established method. […] Differential scanning calorimetry (DSC) analysis and X-ray diffraction analysis were performed for the selected formulations in the Examples described above.

[2] = system: Plasmodium berghei ANKA 868 expressing luciferase; assay: Inhibition of liver stage development assay (ILSDA) in HepG2 cells; format: cell-based; details: HepG2, read-out: PQ Mean (IC50)
Protocol: For the inhibition of liver stage development assay (ILSDA), HepG2 liver cells were cultured with Plasmodium berghei sporozoite expressing firefly luciferase in the presence of a series of dilutions of test compound. In the case of formulations, the compound concentration was determined by the quantitation of HPLC. […] The culture was maintained in microtiter plates for 48 hours after sporozoite invasion and intracellular proliferation of P. berghei parasites in HepG2 cells. The growth inhibition of the parasites by the test compound or the compound complexed with the excipients was determined by measuring the luminescent intensity produced by the process of luciferase catalyzing the substrates which were added by the end of incubation.
The experiments were carried out on HepG2 cells incubated with the sporozoites isolated from salivary glands of infected mosquitoes. […] The results were expressed by the half maximal inhibition concentration (IC50).

[3] = system: Plasmodium berghei ANKA (Pb 868 sporozoites); assay: Causal prophylactic efficacy against sporozoite inoculation in NIH-Swiss female mice; format: in vivo
Protocol: The NIH-Swiss female mice used for the experiment were raised for at least 7 days after arrival. At the start of the experiment, the mice were 7 weeks old. Only one mouse was housed in each cage and maintained in a room with a temperature range of 18 to 26° C. with a relative humidity of 34% to 68% in a 12/12h light-dark cycle. Food and water were provided ad libitum during quarantine and throughout the study. This experiment was carried out in strict accordance with the relevant animal testing regulations (the Chinese State Council's Laboratory Animal Management Regulations, Revised Mar. 1, 2017). The decoquinate suspension used in the animal experiment was from the product of Examples 2, 8, 9, 11, 12 and 15 (F2, F8, F9, F11, F12 and F15), prepared with saline and subjected to ultrasonic treatment for 5 minutes. Each animal experiment was repeated at least three times with a group of 5 each time, so that at least 15 mice were tested in each group. The mice were inoculated with Plasmodium parasites by an injection of 50,000 sporozoites of Plasmodium berghei ANKA (Pb 868 sporozoites) through the tail vein of each mouse. Testing compound or formulation compound was administered to mice by PO (oral administration, by the manually intragastric method) the day before, the day of, and the next day after Plasmodium inoculation. The formulation compound suspended in saline were quantitated by HPLC method before dosing animals. The positive control was primaquine, an antimalarial drug used for the liver-stage Plasmodium. The vehicle control was the components used in the solid dispersion of decoquinate other than decoquinate. No anti-malarial activity was found with the vehicle control, the results of which were consistent with those obtained by using only saline as a negative control. The detection of Plasmodium parasitemia was performed as follows: a conventional method was used to count red blood cells per mm^3 of blood in that a thin film of blood was prepared and stained with 3% Giemsa for 20 minutes; and then the number of infected red blood cells per 1000 red blood cells was counted under oil microscope to obtain erythrocyte infected rate (EIR, ‰). If the parasites were not seen in the thin film, the thick film was prepared for detection of parasites and the results expressed as the parasite number per 100 white blood cells (WBC). Survival rates were calculated on day 60 post-infection for the still live mice versus the dead mice.
[…] The results shown were the number of infected mice on day 12 from the microscopic detection of parasites of thin or thick films. The results also include the protection rate on day 12 and survival rate on day 60. The products from F8, F9, F11 and F15 have 100% survival rates whereas PQ, F2 and F12 have survival rates of 80%.
Table 8 illustrates efficacy studies of the HME compositions prepared in various examples in mice infected with Plasmodium berghei expressing luciferase; wherein decoquinate given to animals at a dose of 5 mg per kg was in the saline suspension of F2, F8, F9, F11, F12, and […] HME preparations; the saline group as a negative control; PQ represents the primaquine group used as a positive control at a dose of 30 mg per kg body weight. […] Protection rates were calculated according to the data of parasitemia detection in mice on day 12 of Plasmodium sporozoite inoculation and the survival rates in each group on day 60 post the sporozoite inoculation.

[4] = primaquine 20 mg/kg (table), intragastric, 3 daily doses, 5 mice per group

Structure (SMILES): C[C@@H]1CC[C@H]2[C@@H](C)C(=O)O[C@@H]3O[C@@]4(C)CC[C@@H]1[C@]32OO4 [Artemisinin]
- IC50 (pfB64G11 (PS); blood stage, pfB64G11, sample collected from patients): 6.66 nM
- IC50 (pfDd2; blood stage, pfDd2 (multidrug resistance including chloroquine), 72h): 26 nM
- IC50 (Pf803; blood stage, Pf803 (chloroquine resistance), 72h): 32 nM
- IC50 (pfB47D6 (PS); blood stage, pfB47D6, sample collected from patients): 25.4 nM
- IC50 (pfB74F6 (PS); blood stage, pfB74F6, sample collected from patients): 14.5 nM
- IC50 (Pf3D7; blood stage, Pf3D7, 72h): 23.1 nM
- IC50 (pfB74C4 (PS); blood stage, pfB74C4, sample collected from patients): 26.4 nM
- IC50 (pfB12D9 (PS)): 24.1 nM

Structure (SMILES): CCN(CC)CCCC(C)Nc1ccnc2cc(Cl)ccc12 (centres unmarked) [Chloroquine]
- IC50 (pfB64G11 (PS)): 30.4 nM
- IC50 (pfDd2; 72 h): 244 nM
- IC50 (Pf803; 72 h): 957 nM
- IC50 (pfB47D6 (PS)): 78.2 nM
- IC50 (pfB74F6 (PS)): 79.2 nM
- IC50 (Pf3D7; 72 h): 57.5 nM
- IC50 (pfB74C4 (PS)): 59.3 nM
- IC50 (pfB12D9 (PS)): 63.3 nM

Structure (SMILES): CCCCCCCCCCOc1cc2c(O)c(C(=O)OCC)cnc2cc1OCC [Decoquinate, ethyl-6-decyloxy-7-ethoxy-4-hydroxyquinoline-3-carboxylate]
- peak pattern and retention time of decoquinate in HPLC [1]: change in the peak pattern and the shift in the retention time

Structure (SMILES): COc1cc(NC(C)CCCN)c2ncccc2c1 (centres unmarked) [PQ, primaquine]
- IC50 [2]: 1730 nM
- survival rate ([3]; 30 mg primaquine per kg body weight, day 60): 80%
- Infected (Day 12) [3, 4]: 2
- Protected rate (Day 12) [3, 4]: 60
- Survival rate (Day 32) [3, 4]: 80%
- Survived (Day 32) [3, 4]: 4
